Laboratory results taken from ChEMBL document CHEMBL3632469, “Discovery of dihydroquinazolinone derivatives as potent, selective, and CNS-penetrant M(1) and M(4) muscarinic acetylcholine receptors agonists” (Bioorg Med Chem Lett, 2015).

How the values were obtained:
[1] = molecular target: D(2) dopamine receptor (Homo sapiens) (UniProt P14416); assay: Agonist activity at dopamine D2S receptor (unknown origin) expressed in CHO cells assessed as calcium mobilization at 3 uM; assay type: functional, cell-based
Cytochrome P450 2D6 = Cytochrome P450 2D6 (Homo sapiens, UniProt P10635); assay: Inhibition of CYP2D6 (unknown origin); assay type: ADME
[2] = molecular target: P2Y purinoceptor 1 (Homo sapiens) (UniProt P47900); assay: Agonist activity at P2Y1 receptor (unknown origin) expressed in CHO cells assessed as calcium mobilization at 3 uM; assay type: functional, cell-based
[3] = molecular target: Histamine H1 receptor (Homo sapiens) (UniProt P35367); assay: Antagonist activity at histamine H1 receptor (unknown origin) expressed in CHO cells assessed as calcium mobilization at 3 uM; assay type: functional, cell-based
[4] = molecular target: T1, Muscarinic acetylcholine receptor M4 (Homo sapiens) (UniProt P08173); assay: Partial agonist activity at human muscarinic M4 acetylcholine receptor expressed in CHO cells co-expressing Galpha16 assessed as calcium mobilization by FLIPR assay relative to control; assay type: functional, cell-based
T1 sequence (whole entry): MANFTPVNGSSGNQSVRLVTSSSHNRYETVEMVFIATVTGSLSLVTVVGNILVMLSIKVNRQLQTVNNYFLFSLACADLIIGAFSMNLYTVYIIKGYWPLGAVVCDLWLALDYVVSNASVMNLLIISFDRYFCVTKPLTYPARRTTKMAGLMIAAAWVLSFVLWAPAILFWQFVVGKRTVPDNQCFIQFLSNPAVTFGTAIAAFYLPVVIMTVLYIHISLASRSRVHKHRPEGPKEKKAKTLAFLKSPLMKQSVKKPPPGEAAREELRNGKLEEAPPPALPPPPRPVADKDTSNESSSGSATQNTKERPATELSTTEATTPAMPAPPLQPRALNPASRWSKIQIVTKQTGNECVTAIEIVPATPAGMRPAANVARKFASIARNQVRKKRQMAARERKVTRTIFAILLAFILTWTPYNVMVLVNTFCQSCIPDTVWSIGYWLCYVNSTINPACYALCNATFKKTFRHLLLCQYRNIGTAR

[5] = molecular target: Delta-type opioid receptor (Homo sapiens) (UniProt P41143); assay: Antagonist activity at opiate delta1 receptor (unknown origin) expressed in CHO cells assessed as calcium mobilization at 3 uM; assay type: functional, cell-based
[6] = molecular target: Nociceptin receptor (Homo sapiens) (UniProt P41146); assay: Antagonist activity at OPRL1 receptor (unknown origin) expressed in CHO cells assessed as calcium mobilization at 3 uM; assay type: functional, cell-based
[7] = molecular target: 5-hydroxytryptamine receptor 5A (Homo sapiens) (UniProt P47898); assay: Agonist activity at 5-HT5a receptor (unknown origin) expressed in CHO cells assessed as calcium mobilization at 3 uM; assay type: functional, cell-based
[8] = molecular target: T1, Muscarinic acetylcholine receptor M4 (Homo sapiens); assay: Partial agonist activity at human muscarinic M4 acetylcholine receptor expressed in CHO cells co-expressing Galpha16 assessed as calcium mobilization at 30 uM by FLIPR assay; assay type: functional, cell-based
[9] = molecular target: Beta-1 adrenergic receptor (Homo sapiens) (UniProt P08588); assay: Agonist activity at adrenergic beta1 receptor (unknown origin) expressed in CHO cells assessed as calcium mobilization at 3 uM; assay type: functional, cell-based
[10] = molecular target: Endothelin-1 receptor (Homo sapiens) (UniProt P25101); assay: Agonist activity at endothelin a receptor (unknown origin) expressed in CHO cells assessed as calcium mobilization at 3 uM; assay type: functional, cell-based
[11] = molecular target: Beta-2 adrenergic receptor (Homo sapiens) (UniProt P07550); assay: Antagonist activity at adrenergic beta2 receptor (unknown origin) expressed in CHO cells assessed as calcium mobilization at 3 uM; assay type: functional, cell-based
[12] = molecular target: D(3) dopamine receptor (Homo sapiens) (UniProt P35462); assay: Agonist activity at dopamine D3L receptor (unknown origin) expressed in CHO cells assessed as calcium mobilization at 3 uM; assay type: functional, cell-based
[13] = molecular target: Histamine H2 receptor (Homo sapiens) (UniProt P25021); assay: Antagonist activity at histamine H2 receptor (unknown origin) expressed in CHO cells assessed as calcium mobilization at 3 uM; assay type: functional, cell-based
[14] = molecular target: Muscarinic acetylcholine receptor M3 (Homo sapiens) (UniProt P20309); assay: Agonist activity at human muscarinic M3 acetylcholine receptor expressed in CHO cells assessed as calcium mobilization at 0.3 uM by FLIPR assay; assay type: functional, cell-based
[15] = molecular target: Substance-P receptor (Homo sapiens) (UniProt P25103); assay: Agonist activity at TaCR1 receptor (unknown origin) expressed in CHO cells assessed as calcium mobilization at 3 uM; assay type: functional, cell-based
[16] = molecular target: Adenosine receptor A2b (Homo sapiens) (UniProt P29275); assay: Agonist activity at adenosine a2B receptor (unknown origin) expressed in CHO cells assessed as calcium mobilization at 3 uM
[17] = molecular target: 5-hydroxytryptamine receptor 4 (Homo sapiens) (UniProt Q13639); assay: Agonist activity at 5-HT4B receptor (unknown origin) expressed in CHO cells assessed as calcium mobilization at 3 uM; assay type: functional, cell-based
[18] = molecular target: Mu-type opioid receptor (Homo sapiens) (UniProt P35372); assay: Agonist activity at ppiate mu receptor (unknown origin) expressed in CHO cells assessed as calcium mobilization at 3 uM; assay type: functional, cell-based
[19] = molecular target: Kappa-type opioid receptor (Homo sapiens) (UniProt P41145); assay: Agonist activity at ppiate kappa receptor (unknown origin) expressed in CHO cells assessed as calcium mobilization at 3 uM; assay type: functional, cell-based
[20] = molecular target: Kappa-type opioid receptor (Homo sapiens) (UniProt P41145); assay: Antagonist activity at opiate kappa receptor (unknown origin) expressed in CHO cells assessed as calcium mobilization at 3 uM; assay type: functional, cell-based
[21] = molecular target: Nuclear receptor subfamily 1 group I member 2 (Homo sapiens, UniProt O75469); assay: Induction of human PXR; assay type: ADME
[22] = molecular target: 5-hydroxytryptamine receptor 2B (Homo sapiens) (UniProt P41595); assay: Antagonist activity at 5-HT2B receptor (unknown origin) expressed in CHO cells assessed as calcium mobilization at 3 uM; assay type: functional, cell-based
[23] = molecular target: 5-hydroxytryptamine receptor 7 (Homo sapiens) (UniProt P34969); assay: Agonist activity at 5-HT7B receptor (unknown origin) expressed in CHO cells assessed as calcium mobilization at 3 uM; assay type: functional, cell-based
[24] = molecular target: Alpha-2C adrenergic receptor (Homo sapiens) (UniProt P18825); assay: Antagonist activity at adrenergic a2C receptor (unknown origin) expressed in CHO cells assessed as calcium mobilization at 3 uM; assay type: functional, cell-based
[25] = molecular target: Adenosine receptor A3 (Homo sapiens) (UniProt P0DMS8); assay: Agonist activity at adenosine a3 receptor (unknown origin) expressed in CHO cells assessed as calcium mobilization at 3 uM; assay type: functional, cell-based
[26] = molecular target: Histamine H3 receptor (Homo sapiens) (UniProt Q9Y5N1); assay: Antagonist activity at histamine H3 receptor (unknown origin) expressed in CHO cells assessed as calcium mobilization at 3 uM; assay type: functional, cell-based
[27] = molecular target: Beta-1 adrenergic receptor (Homo sapiens) (UniProt P08588); assay: Antagonist activity at adrenergic beta1 receptor (unknown origin) expressed in CHO cells assessed as calcium mobilization at 3 uM; assay type: functional, cell-based
[28] = molecular target: Histamine H2 receptor (Homo sapiens) (UniProt P25021); assay: Agonist activity at histamine H2 receptor (unknown origin) expressed in CHO cells assessed as calcium mobilization at 3 uM; assay type: functional, cell-based
[29] = molecular target: Muscarinic acetylcholine receptor M1 (Homo sapiens, UniProt P11229); assay: Agonist activity at human muscarinic M1 acetylcholine receptor expressed in CHO cells assessed as calcium mobilization by FLIPR assay; assay type: functional, cell-based
[30] = molecular target: Neuropeptide Y receptor type 2 (Homo sapiens) (UniProt P49146); assay: Agonist activity at NPY2 receptor (unknown origin) expressed in CHO cells assessed as calcium mobilization at 3 uM; assay type: functional, cell-based
Chain of Neuropeptide Y receptor type 2 (Homo sapiens) (P49146 whole entry): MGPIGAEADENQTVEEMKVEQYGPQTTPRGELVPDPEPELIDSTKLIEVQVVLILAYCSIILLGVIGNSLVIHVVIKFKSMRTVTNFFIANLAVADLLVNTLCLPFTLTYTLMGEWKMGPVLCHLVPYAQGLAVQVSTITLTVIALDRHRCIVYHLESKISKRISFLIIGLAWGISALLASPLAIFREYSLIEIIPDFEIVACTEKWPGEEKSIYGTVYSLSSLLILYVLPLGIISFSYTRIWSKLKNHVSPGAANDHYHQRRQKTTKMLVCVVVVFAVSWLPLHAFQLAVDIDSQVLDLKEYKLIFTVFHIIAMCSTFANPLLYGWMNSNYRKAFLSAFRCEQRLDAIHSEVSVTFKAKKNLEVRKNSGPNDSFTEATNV

Chain of Beta-1 adrenergic receptor (Homo sapiens) (P08588 whole entry, looked up): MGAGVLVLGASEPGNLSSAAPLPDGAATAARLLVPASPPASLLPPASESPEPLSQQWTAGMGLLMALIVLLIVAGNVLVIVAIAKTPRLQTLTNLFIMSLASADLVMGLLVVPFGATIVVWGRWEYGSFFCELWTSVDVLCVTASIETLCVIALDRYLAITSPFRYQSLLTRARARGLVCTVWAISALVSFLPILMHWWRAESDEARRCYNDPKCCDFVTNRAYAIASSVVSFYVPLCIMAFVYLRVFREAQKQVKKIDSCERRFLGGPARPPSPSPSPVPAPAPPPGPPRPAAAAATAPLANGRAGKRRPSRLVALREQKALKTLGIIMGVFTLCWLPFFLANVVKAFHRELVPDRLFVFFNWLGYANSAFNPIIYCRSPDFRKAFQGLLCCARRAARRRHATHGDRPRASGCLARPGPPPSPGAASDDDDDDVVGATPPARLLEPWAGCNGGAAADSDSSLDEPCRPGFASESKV
Chain of Kappa-type opioid receptor (Homo sapiens) (P41145 whole entry): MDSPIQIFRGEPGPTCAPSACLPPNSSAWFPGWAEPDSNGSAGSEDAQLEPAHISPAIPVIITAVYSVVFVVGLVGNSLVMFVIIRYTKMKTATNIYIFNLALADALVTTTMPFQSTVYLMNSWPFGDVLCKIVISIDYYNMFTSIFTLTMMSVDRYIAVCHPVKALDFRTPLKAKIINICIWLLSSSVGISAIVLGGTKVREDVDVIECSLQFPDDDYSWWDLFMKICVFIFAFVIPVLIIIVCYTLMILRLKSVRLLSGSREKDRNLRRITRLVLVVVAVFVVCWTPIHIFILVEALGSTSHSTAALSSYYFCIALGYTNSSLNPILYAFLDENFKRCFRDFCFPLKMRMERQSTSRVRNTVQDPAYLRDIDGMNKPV
Chain of Histamine H2 receptor (Homo sapiens) (P25021 whole entry): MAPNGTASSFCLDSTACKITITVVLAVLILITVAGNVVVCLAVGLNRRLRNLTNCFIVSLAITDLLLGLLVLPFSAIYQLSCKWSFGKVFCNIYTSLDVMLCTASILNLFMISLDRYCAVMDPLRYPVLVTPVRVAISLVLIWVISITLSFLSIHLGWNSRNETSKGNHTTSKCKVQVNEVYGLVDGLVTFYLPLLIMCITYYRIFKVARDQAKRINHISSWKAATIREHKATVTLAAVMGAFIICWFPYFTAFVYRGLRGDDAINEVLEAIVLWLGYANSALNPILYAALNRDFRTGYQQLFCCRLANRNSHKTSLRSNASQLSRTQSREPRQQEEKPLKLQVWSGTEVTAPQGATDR
Chain of Muscarinic acetylcholine receptor M3 (Homo sapiens) (P20309 whole entry, looked up): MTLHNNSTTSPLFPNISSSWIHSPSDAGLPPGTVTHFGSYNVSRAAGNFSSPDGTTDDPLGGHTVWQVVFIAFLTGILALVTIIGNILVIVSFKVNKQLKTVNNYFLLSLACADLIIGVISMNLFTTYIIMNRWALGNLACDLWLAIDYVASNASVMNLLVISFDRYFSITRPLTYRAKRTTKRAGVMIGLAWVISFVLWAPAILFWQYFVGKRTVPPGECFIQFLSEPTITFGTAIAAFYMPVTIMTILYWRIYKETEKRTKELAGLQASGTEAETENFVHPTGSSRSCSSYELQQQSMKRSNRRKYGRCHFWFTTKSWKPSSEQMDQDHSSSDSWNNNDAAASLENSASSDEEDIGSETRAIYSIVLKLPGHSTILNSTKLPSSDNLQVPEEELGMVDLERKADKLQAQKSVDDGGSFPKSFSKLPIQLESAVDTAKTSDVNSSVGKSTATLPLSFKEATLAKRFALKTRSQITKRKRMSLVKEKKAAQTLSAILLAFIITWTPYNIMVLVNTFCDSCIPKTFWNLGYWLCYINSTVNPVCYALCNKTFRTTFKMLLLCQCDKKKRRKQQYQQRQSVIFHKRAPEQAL
Chain of Nociceptin receptor (Homo sapiens) (P41146 whole entry): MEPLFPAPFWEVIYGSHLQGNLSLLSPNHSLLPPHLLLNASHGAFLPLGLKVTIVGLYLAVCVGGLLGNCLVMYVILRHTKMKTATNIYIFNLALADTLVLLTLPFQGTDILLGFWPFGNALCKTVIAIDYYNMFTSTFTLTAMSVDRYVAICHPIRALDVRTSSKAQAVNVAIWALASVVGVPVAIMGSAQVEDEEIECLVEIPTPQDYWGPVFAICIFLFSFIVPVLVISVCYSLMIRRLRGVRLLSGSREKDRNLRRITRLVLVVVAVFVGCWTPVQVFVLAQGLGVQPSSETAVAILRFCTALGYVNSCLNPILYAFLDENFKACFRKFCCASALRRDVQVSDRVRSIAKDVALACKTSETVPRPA
Chain of 5-hydroxytryptamine receptor 7 (Homo sapiens) (P34969 whole entry): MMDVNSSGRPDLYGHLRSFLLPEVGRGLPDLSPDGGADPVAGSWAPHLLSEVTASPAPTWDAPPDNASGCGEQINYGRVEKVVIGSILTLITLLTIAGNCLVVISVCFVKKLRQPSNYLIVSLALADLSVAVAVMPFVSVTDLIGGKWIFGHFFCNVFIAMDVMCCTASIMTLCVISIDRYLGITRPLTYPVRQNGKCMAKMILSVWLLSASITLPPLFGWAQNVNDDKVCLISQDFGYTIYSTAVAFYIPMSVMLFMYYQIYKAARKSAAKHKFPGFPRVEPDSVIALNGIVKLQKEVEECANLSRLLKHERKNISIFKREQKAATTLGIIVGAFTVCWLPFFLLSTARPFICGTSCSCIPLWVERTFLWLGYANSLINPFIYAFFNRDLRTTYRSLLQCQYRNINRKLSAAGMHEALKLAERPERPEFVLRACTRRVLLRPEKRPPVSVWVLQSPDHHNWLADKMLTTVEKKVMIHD
Chain of Beta-2 adrenergic receptor (Homo sapiens) (P07550 whole entry, looked up): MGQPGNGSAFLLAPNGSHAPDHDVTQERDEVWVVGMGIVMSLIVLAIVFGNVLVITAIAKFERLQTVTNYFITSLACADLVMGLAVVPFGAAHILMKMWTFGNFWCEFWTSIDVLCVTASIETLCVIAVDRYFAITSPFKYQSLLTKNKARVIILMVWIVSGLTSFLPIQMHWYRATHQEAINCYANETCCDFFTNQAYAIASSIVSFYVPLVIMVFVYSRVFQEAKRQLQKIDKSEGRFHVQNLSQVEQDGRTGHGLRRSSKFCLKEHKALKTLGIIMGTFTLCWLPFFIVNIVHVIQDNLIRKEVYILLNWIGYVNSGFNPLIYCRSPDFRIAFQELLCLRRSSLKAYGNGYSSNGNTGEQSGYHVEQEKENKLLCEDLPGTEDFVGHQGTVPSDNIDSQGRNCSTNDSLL
Chain of Delta-type opioid receptor (Homo sapiens) (P41143 whole entry): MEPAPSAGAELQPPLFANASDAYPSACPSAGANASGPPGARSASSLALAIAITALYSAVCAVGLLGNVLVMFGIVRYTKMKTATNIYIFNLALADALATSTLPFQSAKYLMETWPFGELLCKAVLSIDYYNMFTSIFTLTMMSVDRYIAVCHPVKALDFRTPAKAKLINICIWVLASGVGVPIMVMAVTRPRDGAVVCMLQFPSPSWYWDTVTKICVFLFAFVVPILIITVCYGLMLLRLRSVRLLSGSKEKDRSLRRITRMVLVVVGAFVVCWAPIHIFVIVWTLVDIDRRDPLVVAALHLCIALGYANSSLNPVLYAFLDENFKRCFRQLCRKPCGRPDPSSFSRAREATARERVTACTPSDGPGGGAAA
Chain of 5-hydroxytryptamine receptor 4 (Homo sapiens) (Q13639 whole entry): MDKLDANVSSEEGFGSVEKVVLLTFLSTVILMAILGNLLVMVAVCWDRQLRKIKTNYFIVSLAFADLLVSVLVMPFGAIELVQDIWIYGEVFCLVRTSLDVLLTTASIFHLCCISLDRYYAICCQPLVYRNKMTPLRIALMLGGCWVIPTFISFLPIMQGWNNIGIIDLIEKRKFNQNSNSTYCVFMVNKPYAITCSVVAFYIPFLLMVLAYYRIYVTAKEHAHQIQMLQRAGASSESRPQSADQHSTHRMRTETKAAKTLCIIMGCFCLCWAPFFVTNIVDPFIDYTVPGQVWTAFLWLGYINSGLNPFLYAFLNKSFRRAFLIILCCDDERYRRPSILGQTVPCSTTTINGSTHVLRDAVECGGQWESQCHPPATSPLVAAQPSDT
Chain of Histamine H3 receptor (Homo sapiens) (Q9Y5N1 whole entry): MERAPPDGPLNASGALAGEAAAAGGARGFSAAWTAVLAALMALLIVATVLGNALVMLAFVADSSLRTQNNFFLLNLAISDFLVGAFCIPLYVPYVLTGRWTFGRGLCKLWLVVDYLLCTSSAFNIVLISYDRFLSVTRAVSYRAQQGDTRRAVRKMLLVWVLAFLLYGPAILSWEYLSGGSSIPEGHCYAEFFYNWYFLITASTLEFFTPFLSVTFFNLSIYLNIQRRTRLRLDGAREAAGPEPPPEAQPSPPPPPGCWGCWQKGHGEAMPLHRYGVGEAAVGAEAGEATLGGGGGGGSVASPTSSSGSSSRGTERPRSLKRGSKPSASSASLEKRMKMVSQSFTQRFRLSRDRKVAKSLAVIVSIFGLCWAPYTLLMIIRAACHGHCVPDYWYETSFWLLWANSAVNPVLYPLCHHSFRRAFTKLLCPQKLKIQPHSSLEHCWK

Q: With `CCOC(=O)N1[C@@H]2CC[C@H]1C[C@H](CN1CC[C@@H](N3Cc4ccccc4NC3=O)C1)C2` as the compound, how does the Activity [1] read?
A: -0.5%

Q: What about the IC50 (Cytochrome P450 2D6) of the same compound?
A: > 2000 nM

Q: What about the Activity [2] of the same compound?
A: -0.18%

Q: What about the inhibition [3] of the same compound?
A: 5.59%

Q: What about the Activity [4] of the same compound?
A: 51%

Q: What about the inhibition [5] of the same compound?
A: 20.9%

Q: And the inhibition [6]?
A: -4.61%

Q: And the Activity [7]?
A: -1.06%

Q: And the Activity [8]?
A: 51%

Q: And the Activity [9]?
A: 0.03%

Q: What about the Activity [10] of the same compound?
A: 0.27%

Q: What about the inhibition [11] of the same compound?
A: 0.18%

Q: And the Activity [12]?
A: -2.42%

Q: And the inhibition [13]?
A: 5.27%

Q: And the Activity [14]?
A: 2%

Q: And the Activity [15]?
A: -0.13%

Q: And the Activity [16]?
A: -0.01%

Q: What about the Activity [17] of the same compound?
A: -1.42%

Q: What about the Activity [18] of the same compound?
A: 1%

Q: What about the Activity [19] of the same compound?
A: -0.33%

Q: And the inhibition [20]?
A: 1.33%

Q: And the Activity [21]?
A: Not Active

Q: And the inhibition [22]?
A: 6.13%

Q: What about the Activity [23] of the same compound?
A: -1.12%

Q: And the inhibition [24]?
A: 6.45%

Q: And the Activity [25]?
A: 1.07%

Q: And the inhibition [26]?
A: 13.7%

Q: And the inhibition [27]?
A: 27.6%

Q: What about the Activity [28] of the same compound?
A: -0.83%

Q: What about the EC50 [29] of the same compound?
A: 14 nM

Q: And the Activity [30]?
A: 1.73%
